In ChEMBL document CHEMBL3046241, “Synthesis and evaluation of 2-amino-5-sulfanyl-1,3,4-thiadiazoles as antidepressant, anxiolytic, and anticonvulsant agents” (Med Chem Res, 2009) one finds Time and Activity data, which are given here for ten molecules.

Calls of active or inactive are those of the source. No cut-off for these calls is given here.

Data set [1] is filed under the species Mus musculus. Briefly: Anxiolytic activity in Mus musculus Swiss albino (mouse) assessed as time spent in open arm by elevated plus maze test. Format: functional.
Data set [2] concerns Mus musculus. Briefly: Antidepressant activity in Mus musculus Swiss albino (mouse) assessed as duration of immobility at 25 mg/kg, ip measured after 1 hr by forced swim test test relative to pretreatment. To be noted: route intraperitoneal. It counts as functional.
For data set [3], the system named is Mus musculus. In words: Anticonvulsant activity against maximal electroshock-induced seizures in Mus musculus Swiss albino (mouse) assessed as animals protected at 25 mg/kg. Format: functional. Background: Protection in the maximal electroshock model is a classic sign of anticonvulsant action.
Data set [4] concerns Mus musculus. In words: Anxiolytic activity in Mus musculus Swiss albino (mouse) assessed as time spent in light chamber at 25 mg/kg by light-dark box test. It counts as functional.
For data set [5], the system named is Mus musculus. In words: Anticonvulsant activity against maximal electroshock-induced seizures in Mus musculus Swiss albino (mouse) assessed as time duration of tonic limb extensor at 25 mg/kg. It counts as functional.
Data set [6] deals with Mus musculus. Briefly: Toxicity in Mus musculus Swiss albino (mouse) assessed as mortality at 25 mg/kg, po. Format: organism-based. More on the design: dose 25 mg/kg, route oral. To be noted: in vivo.
Data set [7] relates to Mus musculus. In words: Antidepressant activity in Mus musculus Swiss albino (mouse) assessed as as increase in mobile phase at 25 mg/kg, ip measured after 1 hr by tail suspension test. It counts as functional. To be noted: route intraperitoneal.
For data set [8], the system named is Mus musculus. Briefly: Anticonvulsant activity against pentylenetetrazole-induced seizures in Mus musculus Swiss albino (mouse) assessed as onset of seizures at 25 mg/kg, po administered 1 hr prior challenge. Format: functional.
Data set [9] has as its system Mus musculus. In words: Toxicity in Mus musculus Swiss albino (mouse) assessed as mortality at 4 mg/kg, po. It counts as organism-based. More on the design: dose 4 mg/kg, route oral. To be noted: in vivo.
For data set [10], the system named is Mus musculus. Briefly: Anxiolytic activity in Mus musculus Swiss albino (mouse) assessed as time spent in light chamber at 2 mg/kg by light-dark box test. Format: functional.
Data set [11] has as its system Mus musculus. Briefly: Anticonvulsant activity against pentylenetetrazole-induced seizures in Mus musculus Swiss albino (mouse) assessed as onset of seizures at 4 mg/kg, po administered 1 hr prior challenge. Format: functional, organism-based. Set-up: dose 4 mg/kg.
Data set [12] has as its system Mus musculus. In words: Anticonvulsant activity against maximal electroshock-induced seizures in Mus musculus Swiss albino (mouse) assessed as animals protected at 40 mg/kg. It counts as functional.
Data set [13] deals with Mus musculus. Briefly: Anticonvulsant activity against maximal electroshock-induced seizures in Mus musculus Swiss albino (mouse) assessed as time duration of tonic limb extensor at 40 mg/kg. Format: functional.
The subject of data set [14] is Mus musculus. In words: Antidepressant activity in ip dosed Mus musculus Swiss albino (mouse) assessed as duration of immobility measured after 1 hr by forced swim test relative to pretreatment. Format: functional.

Regarding `O=C(Nc1nnc(Sc2ccc(C(Cl)(Cl)Cl)cc2)s1)c1ccccc1`, the Time in the data set filed under Mus musculus [1] is given as 20.38 s; in the data set on Mus musculus [4], 152.33 s; in the data set on Mus musculus [5], 7.08 s; with Mus musculus [8], 71.21 s. Also, the Activity in the data set on Mus musculus [2] is reported as -22.15%; with Mus musculus [3] it was 0%; in the data set on Mus musculus [6] it was “Non-toxic”; in the data set with Mus musculus [7], 30.7%.

For the molecule `CN1C(=O)CN=C(c2ccccc2)c2cc(Cl)ccc21` [DIAZEPAM], the Time in the data set listed under Mus musculus [1] stood at 58.76 s; with Mus musculus [10] it was 193 s. In addition, the Activity entry in the data set with Mus musculus [9] was “Non-toxic”. Moreover, the result in the data set on Mus musculus [11] was Active.

On to `O=C(Nc1nnc(Sc2ccc(C(F)(F)F)cc2)s1)c1ccccc1`, for which the Time in the data set filed under Mus musculus [1] stood at 29.86 s; in the data set with Mus musculus [4], 163 s; with Mus musculus [5], 6.18 s; in the data set on Mus musculus [8] it was 81.74 s. The Activity was -29.78% with Mus musculus [2], 0% in the data set with Mus musculus [3], “Toxic” in the data set with Mus musculus [6] and 46.93% in the data set with Mus musculus [7].

Turning to `O=C1NC(=O)C(c2ccccc2)(c2ccccc2)N1` [PHENYTOIN], the Activity with Mus musculus [12] is given as 100%. Also, the Time with Mus musculus [13] was determined as 0 s.

On to `O=C(Nc1nnc(Sc2ccc(S(=O)(=O)Cl)cc2)s1)c1ccccc1`, for which the Time in the data set filed under Mus musculus [1] is 34.11 s; in the data set on Mus musculus [4], 166.66 s; in the data set on Mus musculus [5] it was 6.25 s; with Mus musculus [8], 102.26 s. The Activity in the data set on Mus musculus [2] is listed as -33.58%; in the data set with Mus musculus [3], 0%; in the data set on Mus musculus [6], “Non-toxic”; in the data set with Mus musculus [7], 49.29%.

`CN(C)CCCN1c2ccccc2CCc2ccccc21.Cl` [IMIPRAMINE HYDROCHLORIDE]: the Activity in the data set on Mus musculus [14] was -47.48%.

For the molecule `Cc1ccc(Sc2nnc(NC(=O)c3ccccc3)s2)cc1`, the Time in the data set listed under Mus musculus [1] was 31.13 s; in the data set on Mus musculus [4], 143 s; in the data set on Mus musculus [5] it was 7.35 s; with Mus musculus [8] it was 78.35 s. The Activity is 1.35% in the data set on Mus musculus [2], 0% with Mus musculus [3], “Non-toxic” with Mus musculus [6] and 17.26% in the data set on Mus musculus [7].

As for `NS(=O)(=O)c1ccc(Sc2nnc(NC(=O)c3ccccc3)s2)cc1`, the Time came out at 38.5 s in the data set listed under Mus musculus [1], 163.66 s in the data set with Mus musculus [4], 6.7 s with Mus musculus [5] and 86.98 s in the data set with Mus musculus [8]. The Activity with Mus musculus [2] was -33.22%; with Mus musculus [3] it was 0%; in the data set with Mus musculus [6], “Toxic”; in the data set on Mus musculus [7], 49.86%.

In the case of `O=C(Nc1nnc(Sc2ccc(F)cc2)s1)c1ccccc1`, the Time in the data set filed under Mus musculus [1] is reported as 32.694 s; with Mus musculus [4], 153.66 s; with Mus musculus [5], 6.37 s; in the data set on Mus musculus [8], 91.416 s. Also, the Activity in the data set with Mus musculus [2] is given as -20.3%; in the data set on Mus musculus [3], 0%; in the data set with Mus musculus [6] it was “Non-toxic”; in the data set with Mus musculus [7] it was 28.45%.

Consider `O=C(Nc1nnc(Sc2ccc(Br)cc2)s1)c1ccccc1`, for which the Time is reported as 20.88 s in the data set filed under Mus musculus [1], 153.16 s in the data set on Mus musculus [4], 7.96 s in the data set with Mus musculus [5] and 78.27 s in the data set on Mus musculus [8]. In addition, the Activity in the data set with Mus musculus [2] is listed as 1.1%; with Mus musculus [3], 0%; in the data set on Mus musculus [6], “Toxic”; with Mus musculus [7], 12%.
